Assay results taken from patent US20130004936A1, “SUPERCOOLING PROMOTING AGENT” (National University Corporation Hokkaido Universit, priority 2010, published 2013).

Experiments:
Format in all cases: physicochemical
[1] = system: dead bacterial cells of an ice nucleation active bacterium (Erwinia ananas); assay: Supercooling activity (ice nucleus formation inhibitory activity), 2-μL droplets on cooled copper plate, Erwinia ananas as ice nucleus substance; conditions: for activity that allows water to be supercooled: 2 mg/mL Erwinia ananas, substance 0.01 to 3 mg/mL (FIG. 6); for freezing temperature (INT50): 0.1 mass % substance, 2 mg/mL dead E. ananas cells, cooling 0.2° C./min, temperature at which 50% of droplets froze
Experimental: (§1) In the present invention, a supercooling activity (also referred to as ice nucleus formation inhibitory activity) was measured by the following method. That is, an object to be measured was mixed at […] in a buffer containing an ice nucleus substance to prepare a solution, and many 2-μL liquid droplets of the solution were placed on a copper plate where the temperature could be controlled. The copper plate was cooled at 0.2° C./min, and the number of frozen liquid droplets was visually observed. The temperature at which 50% of the liquid droplets were frozen was defined as a freezing temperature, and a difference between the freezing temperature of the solution including the object to be measured and the ice nucleus substance and the freezing temperature of a solution including only the ice nucleus substance and the buffer (control) (INT50 (° C.)) was defined as a supercooling activity. As the buffer, a 50 mM potassium phosphate buffer (pH 7.0) was used.
The water suspension of the crude extract was centrifuged at 20° C. and 14,000 G, and the supernatant was collected. 300 mL of the supernatant and 600 mL of ethyl acetate were mixed, and the mixture was divided into a water-soluble part and an ethyl acetate-soluble part by a separating funnel, followed by drying. Supercooling activities of the parts were measured by the above-mentioned method. Dead bacterial cells of an ice nucleation active bacterium (Erwinia ananas) (manufactured by Wako Pure Chemical Industries, Ltd.) were used as an ice nucleus substance.
The fractions K to S obtained above were analyzed by high-performance liquid chromatography (column: PC hydrophilic interaction chromatography column (HILIC), solvent: acetonitrile:water=9:1, flow rate: 1 mL/min, detector: UV 280 nm). […] The three substances are known substances, and their structures were confirmed by ^1H-NMR. FIGS. 3 to 5 show the resultant ^1H-NMR charts. FIG. 6 show the supercooling activity of water containing each of the three substances with 2 mg/mL Erwinia ananas serving as an ice nucleus-forming substance, together with control data in the case of containing none of the three substances.
A substance to be measured (1 mg/mL) was mixed in a buffer containing any one of the ice nucleus substances and ultrapure water (MilliQ Water), and the supercooling activities were measured by the above-mentioned method. A difference between the freezing temperature of the solution containing the substance to be measured and the ice nucleus substance and the freezing temperature of the solution including only the ice nucleus substance, and a difference between the freezing temperature of pure water having dissolved therein the substance to be measured and the freezing temperature of only pure water were determined as supercooling activities (ice nucleus formation inhibitory activities) (see FIGS. 8 to 11 and Tables 1 to 4).

[2] = Supercooling activity, droplets on cooled copper plate, silver iodide as ice nucleus substance; conditions: for supercooling activity: against an ice nucleus substance AgI, concentration not given; for freezing temperature (INT50): 0.1 mass % substance, 10 mM AgI, cooling 0.2° C./min
Experimental: as §1
In Examples 4 to 8 below, 10 mM silver iodide (AgI) (manufactured by NACALAI TESQUE, INC.), 2 mg/mL dead bacterial cells of an ice nucleation active bacterium Erwinia ananas (manufactured by Wako Pure Chemical Industries, Ltd.), 2 mg/mL dead bacterial cells of an ice nucleation active bacterium Xanthomonas campestris (manufactured by Wako Pure Chemical Industries, Ltd.), and 120 mM phloroglucinol (manufactured by TOKYO CHEMICAL […] CO., LTD.) were used as ice nucleus substances, and ultrapure water obtained by passing water through an ultrapure water device manufactured by Millipore Corporation was used (MilliQ Water). A substance to be measured (1 mg/mL) was mixed in a buffer containing any one of the ice nucleus substances and ultrapure water (MilliQ Water), and the supercooling activities were measured by the above-mentioned method. A difference between the freezing temperature of the solution containing the substance to be measured and the ice nucleus substance and the freezing temperature of the solution including only the ice nucleus substance, and a difference between the freezing temperature of pure water having dissolved therein the substance to be measured and the freezing temperature of only pure water were determined as supercooling activities (ice nucleus formation inhibitory activities) (see FIGS. 8 to 11 and Tables 1 to 4).

[3] = system: dead bacterial cells of an ice nucleation active bacterium Xanthomonas campestris; assay: Supercooling activity, droplets on cooled copper plate, Xanthomonas campestris as ice nucleus substance; conditions: 0.1 mass % substance; 2 mg/mL dead X. campestris cells; cooling 0.2° C./min
Experimental: as §1, with “used. […]” for “used.”

[4] = Supercooling activity, droplets on cooled copper plate, phloroglucinol as ice nucleus substance; conditions: 0.1 mass % substance; 120 mM phloroglucinol; cooling 0.2° C./min
Experimental: as §1
(§2) In Examples 4 to 8 below, 10 mM silver iodide (AgI) (manufactured by NACALAI TESQUE, INC.), 2 mg/mL dead bacterial cells of an ice nucleation active bacterium Erwinia ananas (manufactured by Wako Pure Chemical Industries, Ltd.), 2 mg/mL dead bacterial cells of an ice nucleation active bacterium Xanthomonas campestris (manufactured by Wako Pure Chemical Industries, Ltd.), and 120 mM phloroglucinol (manufactured by TOKYO CHEMICAL […] CO., LTD.) were used as ice nucleus substances, and ultrapure water obtained by passing water through an ultrapure water device manufactured by Millipore Corporation was used (MilliQ Water). A substance to be measured (1 mg/mL) was mixed in a buffer containing any one of the ice nucleus substances and ultrapure water (MilliQ Water), and the supercooling activities were measured by the above-mentioned method. […]

[5] = Supercooling activity, droplets on cooled copper plate, ultrapure water without ice nucleus substance; conditions: 0.1 mass % substance; ultrapure water (MilliQ Water); cooling 0.2° C./min
Experimental: as §1, §2

2,3,6-tri-O-galloyl-α,β-D-hamamelose
activity that allows water to be supercooled [1]: about 5 °C

O=C(OC[C@H]1O[C@@H](OC(=O)c2cc(O)c(O)c(O)c2)[C@H](OC(=O)c2cc(O)c(O)c(O)c2)[C@@H](OC(=O)c2cc(O)c(O)c(O)c2)[C@@H]1O)c1cc(O)c(O)c(O)c1 [1,2,3,6-tetra-O-galloyl-β-D-glucose]
activity that allows water to be supercooled [1]: about 5 °C

O=C(OC[C@H]1O[C@@H](OC(=O)c2cc(O)c(O)c(O)c2)[C@H](OC(=O)c2cc(O)c(O)c(O)c2)[C@@H](O)[C@@H]1O)c1cc(O)c(O)c(O)c1 [1,2,6-tri-O-galloyl-β-D-glucose]
activity that allows water to be supercooled [1]: about 5 °C

O=C(O)/C=C/c1ccc(O)c(O)c1 [CaA, caffeic acid]
supercooling activity [2]: −1.9 °C

O=C(/C=C/c1ccc(O)c(O)c1)O[C@@H]1C[C@](O)(C(=O)O)C[C@@H](O)[C@H]1O [ChA, chlorogenic acid]
supercooling activity [2]: −0.6 °C

O=c1oc2c(O)c(O)cc3c(=O)oc4c(O)c(O)cc1c4c23 [EA, ellagic acid]
supercooling activity [2]: −0.3 °C

O=C(O[C@@H]1Cc2c(O)cc(O)cc2O[C@@H]1c1ccc(O)c(O)c1)c1cc(O)c(O)c(O)c1 [ECG, epicatechin gallate]
freezing temperature (INT50) [1]: −8.4 °C | freezing temperature (INT50) [2]: −7.8 °C | freezing temperature (INT50) [3]: −8.7 °C | freezing temperature (INT50) [4]: −9.6 °C | freezing temperature (INT50) [5]: −18.7 °C

Oc1cc(O)c2c(c1)O[C@H](c1cc(O)c(O)c(O)c1)[C@H](O)C2 [EGC, epigallocatechin]
freezing temperature (INT50) [1]: −5.7 °C | freezing temperature (INT50) [2]: −6.9 °C | freezing temperature (INT50) [4]: −8.8 °C | freezing temperature (INT50) [5]: −15.8 °C

O=C(O[C@@H]1Cc2c(O)cc(O)cc2O[C@@H]1c1cc(O)c(O)c(O)c1)c1cc(O)c(O)c(O)c1 [EGCG, epigallocatechin gallate]
freezing temperature (INT50) [1]: −8.3 °C | freezing temperature (INT50) [2]: −6.9 °C | freezing temperature (INT50) [3]: −8.9 °C | freezing temperature (INT50) [4]: −8.4 °C | freezing temperature (INT50) [5]: −20.0 °C

O=C(O)c1cc(O)c(O)c(O)c1 [GA, gallic acid]
supercooling activity [2]: −1.2 °C

COC(=O)c1cc(O)c(O)c(O)c1 [MG, methyl gallate]
supercooling activity [2]: −3.3 °C
